In US20220251124A1, “3,5-BIS(PHENYL)-1H-HETEROARYL DERIVATIVES AS MEDICAMENTS” (INSTITUTE OF BIOTECHNOLOGY CAS, V.V.I., priority 2019, published 2022):

Assays:
Type in all cases: cell-based
MCF7 [1] = assay: annexin V/PI staining, cell death induction, 48 hrs
Procedure: (§1) This effect seems to be based mainly on the cytostatic effect of compound 1. To define the ability to kill cells, cell death-inducing potency (cytotoxic efficacy) of DFX and compound 1 have been tested via annexin V/PI staining commonly used as a measure of apoptotic/necrotic cell death. Briefly, cells were seeded in 12-well plate at 100,000 per well, incubated with the selected compounds for 48 hours, then floating cells were spun, adherent cells trypsinized and spun as well followed by the staining with AnnexinV-FITC and PI probes. Cells were then washed with PBS and measured via Fluorescence Activated Sorter.
(§2) Since compound 1 is an iron chelator, we have evaluated the effect of pre-loading compound 1 with iron at a 2:1 ratio and then applying it to the cells, followed by measurement of cell death using the Annexin V/PI staining as in example 4.

MDA-MB-231 [2] = assay: as above
Procedure: as §1, §2

MCF7 cells = assay: crystal violet assay, cellular viability (cytostatic and cytotoxic effect), 48 hrs; details: Homo sapiens, MCF7, 48 h, MCF7 (parental/control), crystal violet, read-out: IC50
Procedure: (§3) Compound 1 and a comparative compound deferasirox (DFX) were tested in their efficacy to kill/suppress proliferation of malignant breast cancer MCF7 cells representing estrogen-dependent type of breast cancer. Briefly, 10.000 cells per well were seeded in a 96-well plate on one day and the next day the tested compounds were added and incubated with the cells for 48 hrs. The cells were then fixed with 4% paraformaldehyde, stained with 0.05% crystal violet, washed with PBS, and solubilized in 1% SDS. The absorbance of the plate at 595 nm was then measured, quantifying the number of viable cells.

MCF7 [3] = assay: cellular ROS, DCF-DA probe, flow cytometry; details: 5 μM
Procedure: (§4) The effect of compound 1 on generation of cellular reactive oxygen species (ROS) was evaluated in MCF7 and MDA-MB-231 cells using a cell permeable ROS probe 2′,7′-dichlorodihydrofluorescein diacetate (DCF-DA; Sigma-Aldrich) that measures several reactive species and becomes fluorescent upon oxidation. Cells treated with compound 1 or compound 2 (5 μM) for the described time interval were stained with the probe and then analyzed via Flow cytometry.

MDA-MB-231 [4] = assay: cellular ROS, DCF-DA probe, flow cytometry; details: 5 μM
Procedure: as §4

MCF7 [5] = assay: cell cycle distribution, Vybrant DyeCycle Violet, flow cytometry; details: 1 μM
Procedure: (§5) In order to define the effect on cellular level, we investigated the effect of compound 1 and 2 at non-cytotoxic concentrations of the drugs (1 μM) on cell cycle. Cells were cultivated with the compounds for 24 and 48 hrs and then stained with Vybrant DyeCycle VioletReady Flow reagent (ThermoFisher Scientific) that binds to DNA and analyzed by Flow cytometry and Kaluza program to define the proportions of G1,S and G2/M phases of cell cycle. It is evident that both compounds lead to accumulation of cells in G1 phase if the cell cycle, which become more prominent at later time points (see Table 12, 13).

MDA-MB-231 [6] = assay: as above; details: 1 μM
Procedure: as §5

MDA-MB-231 cells = assay: crystal violet assay, cellular viability, 48 hrs; details: Homo sapiens, MDA-MB-231, 48 h, MDA-MB-231, crystal violet, read-out: IC50
Procedure: as §3
Compound 1 and the comparative compound deferasirox were tested in their efficacy to kill/suppress proliferation of malignant MDA-MB-231 cancer cells representing hard to treat triple negative breast cancer. The procedure is identical to that in example 12.

cancer cell lines = assay: crystal violet assay, cancer cell lines overall; details: cancer cells, crystal violet
Procedure: as §3

[7] = test system: MCF7 mammospheres (cancer stem-like cells); assay: formation and growth of mammospheres, Cell Titer Glo 3D; details: 1 μM, 140 hrs
Procedure: To test the effect of compound 1 on the viability and proliferation of other resistant cancer cell types, we utilized a model of cancer stem-like cells that can be cultivated in vitro, so-called “mammospheres”. […] In this assay MCF7 spheres were dissociated to single cells/small spheres, seeded 10,000 cells per well on a special cell culture plastic that is non adherent in the Mammocult medium (Stem cell technologies) and compound 1 and compound 2 at 1 μM were added. This represents the non-cytotoxic concentration. Cells were left to grow and generate spheres for 140 hrs. The amount of cells was then measured by the Cell TiterGlo 3D reagent (Promega) that determines cell counts of 3D cultured cells as a function of their ATP content that is determined by a chemiluminescent assay.

Oc1ccccc1-c1nc(-c2ccccc2O)n(CCCCCCCCCC[P+](c2ccccc2)(c2ccccc2)c2ccccc2)n1 [Compound 2, (10-(3,5-bis(2-hydroxyphenyl)-1H-1,2,4-triazol-1-yl)decyl)triphenylphosphonium Bromide]
dead cells (AnnexinV/PI) (MCF7 [1]; 1 μM): 44.2 (0.3) %
dead cells (AnnexinV/PI) (MCF7 [1]; 2 μM): 41.2 (0.4) %
dead cells (AnnexinV/PI) (MCF7 [1]; 5 μM): 60.8 (18.6) %
dead cells (AnnexinV/PI) (MDA-MB-231 [2]; 1 μM): 26.7 (5.8) %
dead cells (AnnexinV/PI) (MDA-MB-231 [2]; 2 μM): 38.5 (7.3) %
dead cells (AnnexinV/PI) (MDA-MB-231 [2]; 5 μM): 87.8 (4.2) %
IC50 (MCF7 cells): 175 nM
DCF-DA mean fluorescence (MCF7 [3]; 5 min, MCF7 (0 min = 100)): 316.5 (96.0)
DCF-DA mean fluorescence (MCF7 [3]; 10 min, MCF7): 558.3 (186.5)
DCF-DA mean fluorescence (MCF7 [3]; 15 min, MCF7): 821.5 (73.8)
DCF-DA mean fluorescence (MCF7 [3]; 30 min, MCF7): 1201.0 (444.0)
DCF-DA mean fluorescence (MCF7 [3]; 60 min, MCF7): 1029.0 (407.7)
DCF-DA mean fluorescence (MDA-MB-231 [4]; 5 min, MDA-MB-231 (0 min = 100)): 255.9 (66.3)
DCF-DA mean fluorescence (MDA-MB-231 [4]; 10 min, MDA-MB-231): 343.5 (78.9)
DCF-DA mean fluorescence (MDA-MB-231 [4]; 15 min, MDA-MB-231): 555.6 (122.4)
DCF-DA mean fluorescence (MDA-MB-231 [4]; 30 min, MDA-MB-231): 473.4 (136.1)
DCF-DA mean fluorescence (MDA-MB-231 [4]; 60 min, MDA-MB-231): 332.0 (158.7)
proportion of cells in G1 (MCF7 [5]; 24 hrs): 74.0 (1.3)
proportion of cells in G2 (MCF7 [5]; 24 hrs): 20.3
proportion of cells in S (MCF7 [5]; 24 hrs): 5.7
proportion of cells in G1 (MCF7 [5]; 48 hrs): 77.5 (2.2)
proportion of cells in G2 (MCF7 [5]; 48 hrs): 11.7 (3.8)
proportion of cells in S (MCF7 [5]; 48 hrs): 10.8 (4.8)
proportion of cells in G1 (MDA-MB-231 [6]; 24 hrs): 64.0 (7.7)
proportion of cells in G2 (MDA-MB-231 [6]; 24 hrs): 28.8 (8.0)
proportion of cells in S (MDA-MB-231 [6]; 24 hrs): 7.3
proportion of cells in G1 (MDA-MB-231 [6]; 48 hrs): 74.1 (3.7)
proportion of cells in G2 (MDA-MB-231 [6]; 48 hrs): 18.5 (5.1)
proportion of cells in S (MDA-MB-231 [6]; 48 hrs): 7.4
IC50 (MDA-MB-231 cells): 464 nM
IC50 (cancer cell lines): ~100 nM
chemiluminescence ATP values normalized to control sample set as 100 [7]: 2.82 (0.28)
